Laboratory results from patent US20250188092A1, “RIFAMYCIN ANALOGS” (THE REGENTS OF THE UNIVERSITY OF MICHIGAN, priority 2021, published 2025).
In brackets after ≈: the same amount, converted by molar mass. Like-named read-outs stand apart in the source and are kept apart here.

How the values were obtained:
[1] = tested on: M. tuberculosis transformed with luxABCDE; assay: microbe, parasite or virus in culture; format: cell-based, Mycobacterium tuberculosis; details: for MBC: ≥99% reduction in luminescence, read-out: MBC99 Day 7 (Lux Assay) MBC
[2] = tested on: non-replicating cultures of M. tuberculosis H37Rv transformed with lux ABCDE; assay: microbe, parasite or virus in culture; format: cell-based, Mycobacterium tuberculosis; details: for MIC90: ≥90% reduction in luminescence, read-out: MIC90 LORA; for MIC90 LORA/MABA: ratio of LORA MIC90 to MABA MIC90
[3] = Mycobacterium tuberculosis, 168 h
[4] = Mycobacterium tuberculosis, H37RV

SMILES | MBC99 Day 7 (Lux Assay) MBC Rel to RMP [1] | MBC [1, 3] | MIC90 LORA Rel to RMP [2] | MIC90 [2, 4] | MIC90 LORA/MABA [2] | MBC [1] | MIC90 [2]
CO[C@H]1/C=C/O[C@@]2(C)Oc3c(C)c(O)c4c(=O)c(c5oc6cc(N7CCOC(CN(C)C)C7)cc(OCc7ccc(CN8CCOCC8)cc7)c6nc-5c4c3C2=O)NC(=O)/C(C)=C\C=C\[C@H](C)[C@H](O)[C@@H](C)[C@@H](O)[C@@H](C)[C@H](OC(C)=O)[C@@H]1C (stereo partly drawn) [Compound 17o, (7S,9E,11S,12R,13S,14R,15R,16R,17S,18S,19E,21Z)-30-{2-[(dimethylamino)methyl]morpholin-4-yl}-2,15,17-trihydroxy-11-methoxy-3,7,12,14,16,18,22-heptamethyl-32-{[4-(morpholin-4-ylmethyl)phenyl]methoxy}-6,23,37-trioxo-8,27,38-trioxa-24,34-diazahexacyclo[23.11.1.1^4,7.0^5,36.0^26,35.0^28,33]octatriaconta-1,3,5(36)9,19,21,25,28,30,32,34-undecaen-13-yl acetate] | 0.28 | 0.128 µM | 2.1 | 0.106 µM | 19 | – | –
CO[C@H]1/C=C/O[C@@]2(C)Oc3c(C)c(O)c4c(=O)c(c5oc6cc(N7CCN(CC(C)C)CC7)cc(OCc7ccc(CN8CCN(C)CC8)cc7)c6nc-5c4c3C2=O)NC(=O)/C(C)=C\C=C\[C@H](C)[C@H](O)[C@@H](C)[C@@H](O)[C@@H](C)[C@H](OC(C)=O)[C@@H]1C [Compound 17p, (7S,9E,11S,12R,13S,14R,15R,16R,17S,18S,19E,21Z)-2,15,17-trihydroxy-11-methoxy-3,7,12,14,16,18,22-heptamethyl-32-({4-[(4-methylpiperazin-1-yl)methyl]phenyl}methoxy)-30-[4-(2-methylpropyl)piperazin-1-yl]-6,23,37-trioxo-8,27,38-trioxa-24,34-diazahexacyclo-[23.11.1.1^4,7.0^5,36.0^26,35.0^28,33]octatriaconta-1,3,5(36)9,19,21,25,28,30,32,34-undecaen-13-yl acetate] | 0.20 | 0.092 µM | – | 0.035 µM | 3.7 | – | –
CO[C@H]1/C=C/O[C@@]2(C)Oc3c(C)c(O)c4c(=O)c(c5oc6cc(N7CCC(C(=O)O)CC7)cc(OCc7ccc(CN8CCN(C)CC8)cc7)c6nc-5c4c3C2=O)NC(=O)/C(C)=C\C=C\[C@H](C)[C@H](O)[C@@H](C)[C@@H](O)[C@@H](C)[C@H](OC(C)=O)[C@@H]1C [Compound 17q, 1-[(7S,9E,11S,12R,13S,14R,15R,16R,17S,18S,19E,21Z)-13-(acetyloxy)-2,15,17-trihydroxy-11-methoxy-3,7,12,14,16,18,22-heptamethyl-32-({4-[(4-methylpiperazin-1-yl)methyl]phenyl}methoxy)-6,23,37-trioxo-8,27,38-trioxa-24,34-diazahexacyclo-[23.11.1.1^4,7.0^5,36.0^26,35.0^28,33]-octatriaconta-1,3,5(36)9,19,21,25,28,30,32,34-undecaen-30-yl]piperidine-4-carboxylic acid] | – | > 0.1 µM | – | > 0.02 µM | – | – | –
CO[C@H]1/C=C/O[C@@]2(C)Oc3c(C)c(O)c4c(=O)c(c5oc6cc(N7CCN(C(=O)c8ccc9occc9c8)CC7)cc(OCc7ccc(CN8CCOCC8)cc7)c6nc-5c4c3C2=O)NC(=O)/C(C)=C\C=C\[C@H](C)[C@H](O)[C@@H](C)[C@@H](O)[C@@H](C)[C@H](OC(C)=O)[C@@H]1C [Compound 17s, (7S,9E,11S,12R,13S,14R,15R,16R,17S,18S,19E,21Z)-30-{4-[(1-benzofuran-5-yl)carbonyl]piperazin-1-yl}-2,15,17-trihydroxy-11-methoxy-3,7,12,14,16,18,22-heptamethyl-32-{[4-(morpholin-4-ylmethyl)phenyl]methoxy}-6,23,37-trioxo-8,27,38-trioxa-24,34-diazahexacyclo[23.11.1.1^4,7.0^5,36.0^26,35.0^28,33]octatriaconta-1,3,5(36)9,19,21,25,28,30,32,34-undecaen-13-yl acetate] | 0.19 | 0.084 µM | 0.60 | 0.03 µM | 1.7 | – | –
CO[C@H]1/C=C/O[C@@]2(C)Oc3c(C)c(O)c4c(=O)c(c5oc6cc(N7CCN(C(=O)c8ccc(-c9ccc(C(N)=O)cc9)cc8)CC7)cc(OCc7ccc(CN8CCOCC8)cc7)c6nc-5c4c3C2=O)NC(=O)/C(C)=C\C=C\[C@H](C)[C@H](O)[C@@H](C)[C@@H](O)[C@@H](C)[C@H](OC(C)=O)[C@@H]1C [Compound 17t, (7S,9E,11S,12R,13S,14R,15R,16R,17S,18S,19E,21Z)-30-(4-{[4-(4-carbamoylphenyl)-phenyl]carbonyl}piperazin-1-yl)-2,15,17-trihydroxy-11-methoxy-3,7,12,14,16,18,22-heptamethyl-32-{[4-(morpholin-4-ylmethyl)phenyl]methoxy}-6,23,37-trioxo-8,27,38-trioxa-24,34-diazahexacyclo[23.11.1.1^4,7.0^5,36.0^26,35.0^28,33]octatriaconta-1,3,5(36)9,19,21,25,28,30,32,34-undecaen-13-yl acetate] | 0.12 | – | 1.2 | – | 1.8 | 0.086 µM | 0.059 µM
CO[C@H]1/C=C/O[C@@]2(C)Oc3c(C)c(O)c4c(=O)c(c5oc6cc(N7CCN(C(C)=O)CC7)cc(C)c6nc-5c4c3C2=O)NC(=O)/C(C)=C\C=C\[C@H](C)[C@H](O)[C@@H](C)[C@@H](O)[C@@H](C)[C@H](OC(C)=O)[C@@H]1C [Compound 26d, (7S,9E,11S,12R,13S,14R,15R,16R,17S,18S,19E,21Z)-30-(4-Acetylpiperazin-1-yl)-2,15,17-trihydroxy-11-methoxy-3,7,12,14,16,18,22,32-octamethyl-6,23,37-trioxo-8,27,38-trioxa-24,34-diazahexacyclo[23.11.1.1^4,7.0^5,36.0^26,35.0^28,33]octatriaconta-1(36)2,4,9,19,21,25,28,30,32,34-undecaen-13-yl acetate] | – | > 0.1 µM | – | > 0.02 µM | – | – | –
CCC(=O)N1CCN(c2cc(C)c3nc4c5c6c7c(C)c(O)c5c(=O)c(c-4oc3c2)NC(=O)/C(C)=C\C=C\[C@H](C)[C@H](O)[C@@H](C)[C@@H](O)[C@@H](C)[C@H](OC(C)=O)[C@H](C)[C@@H](OC)/C=C/O[C@@](C)(O7)C6=O)CC1 [Compound 26e, (7S,9E,11S,12R,13S,14R,15R,16R,17S,18S,19E,21Z)-2,15,17-Trihydroxy-11-methoxy-3,7,12,14,16,18,22,32-octamethyl-6,23,37-trioxo-30-(4-propanoylpiperazin-1-yl)-8,27,38-trioxa-24,34-diazahexacyclo[23.11.1.1^4,7.0^5,36.0^26,35.0^28,33]octatriaconta-1(36)2,4,9,19,21,25,28,30,32,34-undecaen-13-yl acetate] | 0.19 | 0.087 µM | – | > 0.02 µM | – | – | –
CO[C@H]1/C=C/O[C@@]2(C)Oc3c(C)c(O)c4c(=O)c(c5oc6cc(N7CCN(C(=O)C(C)(C)C)CC7)cc(C)c6nc-5c4c3C2=O)NC(=O)/C(C)=C\C=C\[C@H](C)[C@H](O)[C@@H](C)[C@@H](O)[C@@H](C)[C@H](OC(C)=O)[C@@H]1C [Compound 26f, (7S,9E,11S,12R,13S,14R,15R,16R,17S,18S,19E,21Z)-30-[4-(2,2-Dimethylpropanoyl)piperazin-1-yl]-2,15,17-trihydroxy-11-methoxy-3,7,12,14,16,18,22,32-octamethyl-6,23,37-trioxo-8,27,38-trioxa-24,34-diazahexacyclo[23.11.1.1^4,7.0^5,36.0^26,35.0^28,33]octatriaconta-1(36)2,4,9,19,21,25,28,30,32,34-undecaen-13-yl acetate] | 0.09 | 0.043 µM | 0.05 | 0.0095 µM | 2.1 | – | –
COC(=O)N1CCN(c2cc(C)c3nc4c5c6c7c(C)c(O)c5c(=O)c(c-4oc3c2)NC(=O)/C(C)=C\C=C\[C@H](C)[C@H](O)[C@@H](C)[C@@H](O)[C@@H](C)[C@H](OC(C)=O)[C@H](C)[C@@H](OC)/C=C/O[C@@](C)(O7)C6=O)CC1 [Compound 26g, Methyl 4-[(7S,9E,11S,12R,13S,14R,15R,16R,17S,18S,19E,21Z)-13-(acetyloxy)-2,15,17-trihydroxy-11-methoxy-3,7,12,14,16,18,22,32-octamethyl-6,23,37-trioxo-8,27,38-trioxa-24,34-diazahexacyclo[23.11.1.1^4,7.0^5,36.0^26,35.0^28,33]octatriaconta-1(36)2,4,9,19,21,25,28,30,32,34-undecaen-30-yl]piperazine-1-carboxylate] | 0.09 | 0.043 µM (≈ 0.0405 µg/mL) | 0.05 | 0.0096 µM (≈ 0.00903 µg/mL) | 1.9 | – | –
CCOC(=O)N1CCN(c2cc(C)c3nc4c5c6c7c(C)c(O)c5c(=O)c(c-4oc3c2)NC(=O)/C(C)=C\C=C\[C@H](C)[C@H](O)[C@@H](C)[C@@H](O)[C@@H](C)[C@H](OC(C)=O)[C@H](C)[C@@H](OC)/C=C/O[C@@](C)(O7)C6=O)CC1 [Compound 26h, Ethyl 4-[(7S,9E,11S,12R,13S,14R,15R,16R,17S,18S,19E,21Z)-13-(acetyloxy)-2,15,17-trihydroxy-11-methoxy-3,7,12,14,16,18,22,32-octamethyl-6,23,37-trioxo-8,27,38-trioxa-24,34-diazahexacyclo[23.11.1.1^4,7.0^5,36.0^26,35.0^28,33]octatriaconta-1(36)2,4,9,19,21,25,28,30,32,34-undecaen-30-yl]piperazine-1-carboxylate] | 0.06 | 0.028 µM (≈ 0.0267 µg/mL) | 0.05 | 0.0094 µM (≈ 0.00898 µg/mL) | 1.9 | – | –
